Measurements: article PMC10786919, “Design-rules for stapled peptides with in vivo activity and their application to Mdm2/X antagonists” (Nature Communications, 2024)
Values after ≈ are worked out from the molar mass of the structure shown. Where two headings read alike, the source gives them in different places. Positions of bridges follow the written chain, without caps; N, C: chain ends. Non-standard residues stand in square brackets, D forms with d. Residues, ends and D or L forms follow the SMILES beside them. Lys(N3) = [N-]=[N+]=NCCCC[C@H](N)C(=O)O; hArg = N=C(N)NCCCC[C@H](N)C(=O)O; R8 = C=CCCCCCC[C@@](C)(N)C(=O)O; Cba = N[C@@H](CC1CCC1)C(=O)O; S5 = C=CCCC[C@](C)(N)C(=O)O; Aib = CC(C)(N)C(=O)O; βAla = NCCC(=O)O

Assays:
[1] = Solubility assay (kinetic solubility, PBS pH 7); format: physicochemical; conditions: pH 7, PBS; for solubility kinetic: pH 7, aqueous buffer, kinetic from dmso stock, read-out: Solubility
Method in brief: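 Values derive from peak-area ratios of sample versus a 100 µM standard, scaled by that standard's concentration.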

[2] = Lactate dehydrogenase (LDH) release assay; format: cell-based
Method in brief: (§1)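 HCT116 cells stably carrying a p53-responsive β-lactamase reporter were seeded at 8000 cells per well with a final DMSO level of 0.5%. Membrane integrity was assessed by lactate dehydrogenase release using a homogeneous fluorometric kit. Values are geometric means of at least three biological replicates.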

[3] = Experimental LogD (partition coefficient); conditions: for logD: not stated, Partition Coeff LogD
physchem [4] = experiment: physchem
[5] = Circular dichroism (CD) helicity; format: physicochemical
Description: A total of 5 µL of the 10 mM stock peptide was mixed with 45 µL of 100% methanol, and dried for 2 h in the SpeedVac concentrator (Thermo Scientific). The dried peptide was reconstituted in a buffer (1 mM Hepes pH 7.4 and 5% methanol) to a concentration of 1 mM. The peptide sample was placed in a quartz cuvette with a path length of 0.2 cm. The peptide concentration was determined by the absorbance of the peptide at […]. The CD spectrum was recorded from 300 to 190 nm using the Chirascan-plus qCD machine (Applied Photophysics, Surrey, UK), at 25 °C. All experiments were done in duplicates. The CD spectrum was converted to mean residue ellipticity before deconvolution and estimation of the secondary structure components of the peptide using the CDNN software (distributed by Applied Photophysics). Measurements were taken at least twice and were reported as arithmetic means.

[6] = tested on: Jump-In T-REx CHO-K1 BLA cells; experiment: cells; format: cell-based
[7] = tested on: cells transiently transfected with the NanoLuc-HaloTag vector; experiment: Nanoclick permeability assay; conditions: 4Hr
Method in brief: (§2)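 Azido-peptide permeability was read as loss of NanoBRET signal (donor 450 nm, acceptor 610 nm) after adding NanoBret618-azide at 10 μM final.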

[8] = tested on: p53 responsive β-lactamase reporter in HCT116 cells; experiment: cells; format: cell-based; conditions: 0% FBS 4Hr; read-out: p53 reporter assay: EC50
Method in brief: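 HCT116 cells stably carrying a p53-responsive β-lactamase reporter, seeded at 8000 cells/well, with 0.5% DMSO final. Reporter activity read by ToxBLAzer Dual Screen. Values are geometric means of at least three biological replicates.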

HCT116 cells = experiment: Lactate dehydrogenase (LDH) release assay; format: cell-based
Method in brief: as §1

physchem [9] = experiment: physchem; remark: listed apart in the source
in vitro = experiment: in vitro
Method in brief: as §2

[10] = Nanoclick permeability assay EC50

| SMILES | EC50 ([2]; LDH: Cytotoxicity assay EC50) | EPSA (physchem [4]) | CD % Helicity [5] | TETCHO: Counterscreen % Effect ([6]; 0% FBS 4Hr) | solubility kinetic [1] | Nanoclick permeability assay % Effect [7] | EPSA (physchem [9]) | logD [3] | cell entry EC50 (in vitro; [10]) | also measured |
| --- | --- | --- | --- | --- | --- | --- | --- | --- | --- | --- |
| CC(=O)N[C@@H](CC(C)C)C(=O)N[C@H](C(=O)N[C@@H](Cc1ccccc1)C(=O)N[C@]1(C)CCCCCCC=CCCC[C@@](C)(C(=O)N[C@@H](CO)C(=O)N[C@@H](C)C(=O)N[C@@H](C)C(=O)NCCCCCC(N)=O)NC(=O)[C@H](CC2CCC2)NC(=O)[C@H](CCC(N)=O)NC(=O)[C@H](C)NC(=O)[C@H](Cc2c[nH]c3ccccc23)NC(=O)[C@H](Cc2ccc(O)cc2)NC(=O)[C@H](CCC(=O)O)NC1=O)[C@@H](C)O [MP-670] | > 50 µM | 193 A^2 |  |  |  |  |  |  |  | Solubility [1]: Poorly Behaved; Partition Coeff LogD [3]: Poorly Behaved |
| CC(=O)N[C@@H](CC(C)C)C(=O)N[C@H](C(=O)N[C@@H](Cc1ccccc1)C(=O)NC(C)(C)C(=O)N[C@@H](CCC(=O)O)C(=O)N[C@@H](Cc1ccc(O)cc1)C(=O)N[C@@H](Cc1c[nH]c2ccccc12)C(=O)N[C@@H](C)C(=O)N[C@@H](CCC(N)=O)C(=O)N[C@@H](CC(C)C)C(=O)NC(C)(C)C(=O)N[C@@H](CO)C(N)=O)[C@@H](C)O [MP-790] (Ac-LTF[Aib]EYWAQL[Aib]S-NH2) |  |  | 19% | 9.13% | 88 µM (≈ 129 µg/mL) | -7.015% | 176 A^2 | 2.11 |  | EC50 ([6]; 0% FBS 4Hr, read-out: TETCHO: Counterscreen EC50): > 50.6 µM; TETCHO: Counterscreen % Effect ([6]; 0% FBS 16Hr): 119.2%; EC50 [8]: > 50.6 µM; LDH: Cytotoxicity assay: % Effect (HCT116 cells): -1.73%; EC50 ([2]; LDH: Cytotoxicity assay: EC50): > 50.6 µM |
| CC[C@H](C)[C@H](NC(=O)[C@H](CC(C)C)NC(=O)[C@@H]1CCCN1C(C)=O)C(=O)N[C@@H](Cc1ccc(O)cc1)C(=O)N[C@@H](CC(C)C)C(=O)N[C@@H](CCCNC(=N)N)C(=O)N[C@@H](CC(C)C)C(=O)N[C@@H](CC(C)C)C(=O)N[C@@H](CCCNC(=N)N)C(=O)NCC(=O)N[C@@H](CCC(N)=O)C(=O)N[C@@H](Cc1ccccc1)C(=O)N[C@@H](CCCCN=[N+]=[N-])C(=O)NCCC(=O)N[C@@H](CC(C)C)C(=O)N[C@H](C(=O)N[C@@H](Cc1ccccc1)C(=O)N[C@]1(C)CCCCCCC=CCCC[C@@](C)(C(=O)N[C@@H](CO)C(=O)N[C@@H](C)C(=O)N[C@@H](C)C(N)=O)NC(=O)[C@H](CC2CCC2)NC(=O)[C@H](CCC(N)=O)NC(=O)[C@H](C)NC(=O)[C@H](Cc2c[nH]c3ccccc23)NC(=O)[C@H](Cc2ccc(O)cc2)NC(=O)[C@H](CCC(=O)O)NC1=O)[C@@H](C)O [MP-880] | > 50 µM | 245 A^2 |  |  | 2 µM (≈ 6.88 µg/mL) |  |  | 3.54 | 0.569 µM |  |
| CC(=O)N[C@@H](CCCCN=[N+]=[N-])C(=O)NCCC(=O)N[C@@H](CC(C)C)C(=O)N[C@H](C(=O)N[C@@H](Cc1ccccc1)C(=O)N[C@]1(C)CCCCCCC=CCCC[C@@](C)(C(=O)N[C@@H](CO)C(=O)N[C@@H](C)C(=O)N[C@@H](C)C(N)=O)NC(=O)[C@H](CC2CCC2)NC(=O)[C@H](CCCCNC(=N)N)NC(=O)[C@H](C)NC(=O)[C@H](Cc2c[nH]c3ccccc23)NC(=O)[C@H](Cc2ccc(O)cc2)NC(=O)[C@H](CCC(=O)O)NC1=O)[C@@H](C)O [MP-900] (Ac-[Lys(N3)][βAla]LTF[R8]EYWA[hArg][Cba][S5]SAA-NH2; staple 6-13) |  | 187 A^2 |  |  | 10 µM (≈ 20.1 µg/mL) |  |  | 3.03 | 1.04 µM |  |
| CC(=O)N[C@@H](CCCCN=[N+]=[N-])C(=O)NCCC(=O)N[C@@H](CC(C)C)C(=O)N[C@H](C(=O)N[C@@H](Cc1ccccc1)C(=O)N[C@]1(C)CCCCCCC=CCCC[C@@](C)(C(=O)N[C@@H](CO)C(=O)N[C@@H](C)C(=O)N[C@@H](C)C(N)=O)NC(=O)[C@H](CC2CCC2)NC(=O)[C@H](CCC(N)=O)NC(=O)[C@H](C)NC(=O)[C@H](Cc2c[nH]c3ccccc23)NC(=O)[C@H](Cc2ccc(O)cc2)NC(=O)[C@@H]2CCCN2C1=O)[C@@H](C)O [MP-8834] |  |  | 21.9% | 11.7% |  | 129.4% | 187 A^2 | 3.03 |  | cell entry EC50 (in vitro): 0.312 µM; LDH: Cytotoxicity assay: % Effect (HCT116 cells; 0% FBS 4Hr): 1.728%; EC50 ([2]; 0% FBS 4Hr, read-out: LDH: Cytotoxicity assay: EC50): > 50.6 µM |
